Data from ChEMBL document CHEMBL5505951, “Insight into the design of FGFR4 selective inhibitors in cancer therapy: Prospects and challenges” (Eur J Med Chem, 2024).
Values belong to the compound of their own block, whether it stands above or below them.

What was measured:
[1] = molecular target: T1, Fibroblast growth factor receptor 3 (Homo sapiens, UniProt P22607); test: Inhibition of N-terminal 6xHis-tagged human FGFR3 (450 to 758 residues) transfected in Escherichia coli Rossetta cells incubated for 30 mins by ADP-Glo assay
T1 sequence (P22607 whole entry, the tested form may be a part): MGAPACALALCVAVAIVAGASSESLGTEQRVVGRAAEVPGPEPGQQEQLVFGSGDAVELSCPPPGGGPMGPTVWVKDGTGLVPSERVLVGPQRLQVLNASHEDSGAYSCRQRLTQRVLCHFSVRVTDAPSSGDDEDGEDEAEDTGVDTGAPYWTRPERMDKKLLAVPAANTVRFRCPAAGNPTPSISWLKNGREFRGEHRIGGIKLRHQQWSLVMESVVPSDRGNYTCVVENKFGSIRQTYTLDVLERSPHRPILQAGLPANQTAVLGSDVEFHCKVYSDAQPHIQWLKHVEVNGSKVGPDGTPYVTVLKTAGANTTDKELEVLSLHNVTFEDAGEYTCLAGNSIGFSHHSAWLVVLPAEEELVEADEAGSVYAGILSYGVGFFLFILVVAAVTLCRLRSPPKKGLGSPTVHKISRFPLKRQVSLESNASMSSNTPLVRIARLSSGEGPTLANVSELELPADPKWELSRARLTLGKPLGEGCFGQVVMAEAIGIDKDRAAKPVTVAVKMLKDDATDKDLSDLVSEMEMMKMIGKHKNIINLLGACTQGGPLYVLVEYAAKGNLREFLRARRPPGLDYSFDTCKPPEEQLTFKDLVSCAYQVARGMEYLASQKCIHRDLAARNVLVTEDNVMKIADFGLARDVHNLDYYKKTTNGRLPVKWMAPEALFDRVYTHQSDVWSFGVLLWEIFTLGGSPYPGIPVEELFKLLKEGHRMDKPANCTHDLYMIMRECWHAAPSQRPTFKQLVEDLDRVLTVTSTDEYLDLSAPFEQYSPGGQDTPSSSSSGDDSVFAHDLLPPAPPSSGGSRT

[2] = molecular target: T2, Fibroblast growth factor receptor 1 (Homo sapiens, UniProt P11362); test: Inhibition of N-terminal 6xHis-tagged human FGFR1 (456 to 765 residues) transfected in Escherichia coli Rossetta cells incubated for 30 mins by ADP-Glo assay
T2 sequence (P11362 whole entry, the tested form may be a part): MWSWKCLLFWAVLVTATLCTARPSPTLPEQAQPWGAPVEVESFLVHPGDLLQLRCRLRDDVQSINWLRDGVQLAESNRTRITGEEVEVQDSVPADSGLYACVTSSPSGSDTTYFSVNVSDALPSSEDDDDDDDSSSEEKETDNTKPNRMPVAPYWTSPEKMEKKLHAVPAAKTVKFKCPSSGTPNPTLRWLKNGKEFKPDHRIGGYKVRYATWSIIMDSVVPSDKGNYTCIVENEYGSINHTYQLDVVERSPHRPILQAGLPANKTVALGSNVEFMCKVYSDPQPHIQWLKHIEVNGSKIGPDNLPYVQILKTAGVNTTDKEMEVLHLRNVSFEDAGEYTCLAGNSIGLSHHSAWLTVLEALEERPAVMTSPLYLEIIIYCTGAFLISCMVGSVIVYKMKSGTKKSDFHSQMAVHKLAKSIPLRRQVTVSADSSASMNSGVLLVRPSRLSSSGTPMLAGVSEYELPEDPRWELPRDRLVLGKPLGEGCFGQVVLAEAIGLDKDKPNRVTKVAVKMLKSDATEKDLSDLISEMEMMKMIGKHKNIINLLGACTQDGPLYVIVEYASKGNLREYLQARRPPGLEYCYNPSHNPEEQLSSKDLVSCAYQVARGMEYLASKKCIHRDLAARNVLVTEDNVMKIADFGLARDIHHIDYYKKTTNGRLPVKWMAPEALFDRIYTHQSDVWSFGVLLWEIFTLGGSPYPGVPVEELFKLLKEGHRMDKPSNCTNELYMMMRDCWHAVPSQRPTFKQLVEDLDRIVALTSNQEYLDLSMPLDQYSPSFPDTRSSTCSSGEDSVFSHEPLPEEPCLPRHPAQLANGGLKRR

[3] = molecular target: T3, Fibroblast growth factor receptor 2 (Homo sapiens, UniProt P21802); test: Inhibition of N-terminal 6xHis-tagged human FGFR2 (453 to 770 residues) transfected in Escherichia coli Rossetta cells incubated for 30 mins by ADP-Glo assay
T3 sequence (P21802 whole entry, the tested form may be a part): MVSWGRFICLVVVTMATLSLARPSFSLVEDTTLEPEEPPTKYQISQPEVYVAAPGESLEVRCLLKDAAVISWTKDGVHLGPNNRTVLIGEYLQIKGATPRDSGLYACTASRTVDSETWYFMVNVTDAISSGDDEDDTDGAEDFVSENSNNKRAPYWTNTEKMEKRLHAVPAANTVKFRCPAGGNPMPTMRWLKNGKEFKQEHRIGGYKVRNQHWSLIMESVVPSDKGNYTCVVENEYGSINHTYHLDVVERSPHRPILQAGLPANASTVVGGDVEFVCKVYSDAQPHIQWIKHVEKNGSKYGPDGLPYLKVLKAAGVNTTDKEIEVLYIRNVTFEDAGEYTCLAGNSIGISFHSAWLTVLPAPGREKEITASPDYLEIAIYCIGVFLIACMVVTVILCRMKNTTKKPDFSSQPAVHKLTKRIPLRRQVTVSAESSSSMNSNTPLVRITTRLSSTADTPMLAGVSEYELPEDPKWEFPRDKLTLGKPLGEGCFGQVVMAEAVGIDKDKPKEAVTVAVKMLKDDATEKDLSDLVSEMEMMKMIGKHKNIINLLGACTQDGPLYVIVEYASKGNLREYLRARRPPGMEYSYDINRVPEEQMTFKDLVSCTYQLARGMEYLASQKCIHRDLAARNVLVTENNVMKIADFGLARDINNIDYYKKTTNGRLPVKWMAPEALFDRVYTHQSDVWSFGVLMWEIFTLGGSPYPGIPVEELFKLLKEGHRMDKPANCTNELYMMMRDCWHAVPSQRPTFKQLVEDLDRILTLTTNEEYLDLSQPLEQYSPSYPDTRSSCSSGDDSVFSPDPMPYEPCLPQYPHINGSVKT

[4] = molecular target: Fibroblast growth factor receptor 4 (Homo sapiens, UniProt P22455, C477A/C552A); test: Inhibition of FGFR4 C552A/C477A double mutant (unknown origin)
Fibroblast growth factor receptor 4, sequence (P22455 22-802 C477A/C552A limits assumed): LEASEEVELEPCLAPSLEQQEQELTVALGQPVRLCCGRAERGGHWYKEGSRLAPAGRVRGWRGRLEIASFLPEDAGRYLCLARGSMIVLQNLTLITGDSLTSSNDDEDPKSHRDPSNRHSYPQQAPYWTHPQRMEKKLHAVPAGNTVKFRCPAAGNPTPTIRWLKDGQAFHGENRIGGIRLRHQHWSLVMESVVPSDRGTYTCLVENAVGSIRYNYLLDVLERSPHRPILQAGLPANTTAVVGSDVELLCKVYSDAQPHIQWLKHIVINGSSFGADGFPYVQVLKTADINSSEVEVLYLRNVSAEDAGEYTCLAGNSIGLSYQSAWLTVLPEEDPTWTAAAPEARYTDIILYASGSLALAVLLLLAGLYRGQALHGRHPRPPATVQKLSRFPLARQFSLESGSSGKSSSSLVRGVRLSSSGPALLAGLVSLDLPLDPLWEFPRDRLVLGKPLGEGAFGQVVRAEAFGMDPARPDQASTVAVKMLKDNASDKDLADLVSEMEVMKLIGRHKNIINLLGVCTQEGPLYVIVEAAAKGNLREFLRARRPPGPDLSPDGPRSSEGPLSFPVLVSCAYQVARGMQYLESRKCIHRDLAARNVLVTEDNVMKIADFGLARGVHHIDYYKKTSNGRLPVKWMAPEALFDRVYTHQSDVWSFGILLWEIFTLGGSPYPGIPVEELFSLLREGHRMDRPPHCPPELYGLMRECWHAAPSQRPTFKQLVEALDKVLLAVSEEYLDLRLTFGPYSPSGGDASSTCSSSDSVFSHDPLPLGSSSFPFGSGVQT

[5] = molecular target: T1, Fibroblast growth factor receptor 3; test: Inhibition of FGFR3 (unknown origin) incubated for 30 mins by ADP-Glo assay
Huh-7 [6] = test: Antiproliferative activity against human Huh-7 cells expressing FGFR2 assessed as reduction in cell viability incubated for 48 hrs by MTT assay; type: functional, cell-based; conditions: Huh-7, 48 h
[7] = molecular target: T2, Fibroblast growth factor receptor 1; test: Inhibition of FGFR1 (unknown origin) incubated for 30 mins by ADP-Glo assay
Huh-7 [8] = test: Antiproliferative activity against human Huh-7 cells expressing FGFR3 assessed as reduction in cell viability incubated for 48 hrs by MTT assay; type: functional, cell-based; conditions: Huh-7, 48 h
Hep 3B2 [9] = test: Antiproliferative activity against human Hep3B cells expressing FGFR3 assessed as reduction in cell viability incubated for 48 hrs by MTT assay; type: functional, cell-based
Hep 3B2 [10] = test: Antiproliferative activity against human Hep3B cells expressing FGFR2 assessed as reduction in cell viability incubated for 48 hrs by MTT assay; type: functional, cell-based
Huh-7 [11] = test: Antiproliferative activity against FGF19/FGFR4 dependent human Huh-7 cells assessed as reduction in cell viability; type: functional, cell-based
Hep 3B2 [12] = test: Antiproliferative activity against FGF19/FGFR4 dependent human Hep3B cells assessed as reduction in cell viability; type: functional, cell-based
[13] = molecular target: T3, Fibroblast growth factor receptor 2; test: Inhibition of FGFR2 (unknown origin)
[14] = molecular target: T2, Fibroblast growth factor receptor 1; test: Inhibition of FGFR1 (unknown origin)
[15] = molecular target: T1, Fibroblast growth factor receptor 3; test: Inhibition of FGFR3 (unknown origin)
[16] = Half life in human; type: ADME
Hep 3B2 [17] = test: Antitumor activity against human Hep3B cells xenografted in BALB/c nude mouse assessed as tumor growth inhibition at 100 mg/kg, po relative to control; type: functional; conditions: read-out: TGI

SMILES: C=CC(=O)Nc1ccccc1Nc1ncc2c(n1)N(CCCN1CCN(C(=O)C=C)CC1)C(=O)N(c1c(Cl)c(OC)cc(OC)c1Cl)C2
IC50 [1]: 977 nM
IC50 [2]: 2580 nM
IC50 [3]: 2410 nM
IC50 [4]: 1530 nM

SMILES: C=CC(=O)Nc1cc(F)cc(Cl)c1Nc1nc(C)c(OCc2c(F)c(OC)cc(OC)c2F)c(C)n1
IC50 [5]: > 30000 nM
IC50 (Huh-7 [6]): 7100 nM
IC50 [7]: > 50000 nM
IC50 (Huh-7 [8]): 12600 nM
IC50 (Hep 3B2 [9]): 4500 nM
IC50 (Hep 3B2 [10]): 900 nM

SMILES: C=CC(=O)Nc1cc(N2CCN(CC)CC2)ccc1Nc1cc(N(C)C(=O)Nc2c(Cl)c(OC)cc(OC)c2Cl)ncn1 [H3B-6527]
inhibition in vivo at 100 mg/kg (Hep 3B2 [17]): 109%

Second part, led by results:

IC50 (Huh-7 [11]): 9200 nM
SMILES: COc1cc(OC)c(Cl)c(-c2ccc3nc(NCCCNC(=O)/C(C#N)=C/C4CC4)ncc3c2)c1Cl
IC50 (Hep 3B2 [12]): 9000 nM

IC50 [13]: 493 nM
IC50 [14]: 591 nM
IC50 [15]: 150 nM
half-life [16]: ~17 h
SMILES: C=CC(=O)N[C@H]1CCOC[C@H]1Nc1ncc2cc(-c3c(Cl)c(OC)cc(OC)c3Cl)ccc2n1 [FISOGATINIB]
